From patent publication US12643912B2, “Macrocyclic compounds, a process for their preparation and pharmaceutical compositions containing them” (LES LABORATOIRES SERVIER, priority 2020, dated 2026)
Where two headings read alike, the source gives them in different places.

Experiments:
[1] = tested on: Nrf2 (Keap1-NRF2 nuclear translocation); assay: U2OS translocation assay (PathHunter U2OS Keap1-NRF2 Nuclear Translocation Cell Line); assay type: cell-based
Summary of the method: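 PathHunter U2OS line expressing Nrf2-enzyme-donor fusion and nuclear acceptor enzyme, 7 500 cells/well in Opti-MEM, 1% FBS. Compounds incubated 3 h at 37° C. Luminescence after 60 min with detection reagent, normalized between 1% DMSO and 10 μM andrographolide.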

[2] = biological target: T1, Keap1 (A321-C624) (h) (Homo sapiens, UniProt Q14145); assay: Surface Plasmon Resonance binding assay to Kelch domain of KEAP1; conditions: Biacore T200, 25° C., immobilized His-Thromb-KEAP1(A321-C624), single cycle kinetics, KD=kd/ka from 1:1 fit; read-out: Keap1 (A321-C624) (h) direct/SPR (KD)
T1 construct: His-Thromb-KEAP1(A321-C624) acquired from Novalix (batch PU-P01) was immobilized covalently by amine coupling; His tag (N); thrombin cleavage site (Thromb) (N); purchased Novalix batch PU-P01
T1 sequence (Q14145 321-624): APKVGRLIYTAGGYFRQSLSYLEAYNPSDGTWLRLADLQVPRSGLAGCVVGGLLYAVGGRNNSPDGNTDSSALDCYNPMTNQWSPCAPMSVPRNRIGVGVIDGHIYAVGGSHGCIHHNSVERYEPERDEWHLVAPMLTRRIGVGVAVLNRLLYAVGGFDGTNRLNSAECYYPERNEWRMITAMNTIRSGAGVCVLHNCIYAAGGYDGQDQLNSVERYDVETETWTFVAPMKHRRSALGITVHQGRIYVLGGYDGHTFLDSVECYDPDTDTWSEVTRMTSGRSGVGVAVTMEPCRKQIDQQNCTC
Summary of the method: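 His-Thromb-KEAP1(A321-C624) amine-coupled on CM5 chip to 1250 RU; amine blank reference. Run at 25° C in HEPES pH 7.4, 150 mM NaCl, 3 mM EDTA, 1 mM TCEP, 0.05% P20, 5% DMSO; 180 s association, 720 s dissociation, 50 μL/min. KD = kd/ka from 1:1 kinetic fit, double-referenced, DMSO solvent-corrected.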

[3] = read-out: CELLULAR U2OS EC50, U2OS Keap1-NRF2 nuclear translocation cells, 3 h incubation, luminescence, normalized between 1% DMSO and 10 μM andrographolide
[4] = Homo sapiens, U2OS, 3 h, read-out: CELLULAR U2OS EC50 (nM), U2OS Keap1-NRF2 nuclear translocation cells, 3 h incubation, luminescence, normalized between 1% DMSO and 10 μM andrographolide

Row | Compound | EC50 [1, 3] | Kd [2] | EC50 [1, 4]
1 | Cc1ccc2cc1CN1Cc3c(ccc(c3Cl)OCCCCn3nnc4c(C)c(ccc43)C2CC(=O)O)OS1(=O)=O (single isomer, unassigned) [Example 66a, [30-Chloro-4,31-dimethyl-27,27-dioxo-21,26-dioxa-27λ^6-thia-1,14,15,16-tetraazahexacyclo[20.5.3.1^3,70.1^9,130.0^12,160.0^25,29]dotriaconta-3(32),4,6,9(31),10,12,14,22,24,29-decaen-8-yl]acetic acid] | 3.44 nM | 0.678 nM | 
2 | Cc1ccc2cc1CN1Cc3cc(ccc3OS1(=O)=O)OCCN(c1ccccc1)CCn1nnc3c(C)c(ccc31)C2CC(=O)O (single isomer, unassigned) [Example 58b, [4,32-Dimethyl-28,28-dioxo-19-phenyl-22,27-dioxa-28λ^6-thia-1,14,15,16,19-pentaazahexacyclo[21.5.3.1^3,70.1^9,130.0^12,160.0^26,30]tritriaconta-3(33),4,6,9(32),10,12,14,23,25,30-decaen-8-yl]acetic acid] | 427 nM | 12.5 nM | 
3 | Cc1c(Cl)cc2cc1CN1Cc3cc(ccc3OS1(=O)=O)OCCCCn1nnc3c(C)c(ccc31)C2CC(=O)O (single isomer, unassigned) [Example 33a, [5-Chloro-4,31-dimethyl-27,27-dioxo-21,26-dioxa-27λ^6-thia-1,14,15,16-tetraazahexacyclo[20.5.3.1^3,70.1^9,130.0^12,160.0^25,29]dotriaconta-3(32),4,6,9(31),10,12,14,22,24,29-decaen-8-yl]acetic acid] | 94.5 nM | 4.55 nM | 
4 | Cc1ccc2cc1CN1Cc3cc(ccc3OS1(=O)=O)OC[C@H](C)CCn1nnc3c(C)c(ccc31)C2CC(=O)O (single isomer, unassigned) [Example 45a] | 11.8 nM | 0.594 nM | 
5 | Cc1c(F)cc2cc1CN1Cc3cc(ccc3OS1(=O)=O)OCCCCn1nnc3c(C)c(ccc31)C2CC(=O)O (single isomer, unassigned) [Example 18b, [5-Fluoro-4,31-dimethyl-27,27-dioxo-21,26-dioxa-27λ^6-thia-1,14,15,16-tetraazahexacyclo[20.5.3.1^3,70.1^9,130.0^12,160.0^25,29]dotriaconta-3(32),4,6,9(31),10,12,14,22,24,29-decaen-8-yl]acetic acid] | 91.3 nM | 1.01 nM | 
6 | Cc1ccc2cc1CN1Cc3cc(ccc3OS1(=O)=O)OCc1ccccc1CCn1nnc3c(C)c(ccc31)C2CC(=O)O (single isomer, unassigned) [Example 62a, [4,36-Dimethyl-32,32-dioxo-26,31-dioxa-32λ^6-thia-1,14,15,16-tetraazaheptacyclo[25.5.3.1^3,70.1^9,130.0^12,160.0^19,240.0^30,34]heptatriaconta-3(37),4,6,9(36),10,12,14,19,21,23,27,29,34-tridecaen-8-yl]acetic acid] |  | 3 nM | 177 nM
7 | Cc1c2ccc3c1nnn3CCCCOc1ccc3c(c1)CN(Cc1cc(ccc1F)C2CC(=O)O)S(=O)(=O)O3 (centres unmarked) [Example 14, [4-Fluoro-31-methyl-27,27-dioxo-21,26-dioxa-27λ^6-thia-1,14,15,16-tetraazahexacyclo[20.5.3.1^3,70.1^9,130.0^12,160.0^25,29]dotriaconta-3(32),4,6,9(31),10,12,14,22,24,29-decaen-8-yl]acetic acid] |  | 14.2 nM | 582 nM
8 | Cc1ccc2cc1CN1Cc3cc(c(F)cc3OS1(=O)=O)OCCCCn1nnc3c(C)c(ccc31)C2CC(=O)O (single isomer, unassigned) [Example 32a, [23-Fluoro-4,31-dimethyl-27,27-dioxo-21,26-dioxa-27λ^6-thia-1,14,15,16-tetraazahexacyclo[20.5.3.1^3,70.1^9,130.0^12,160.0^25,29]dotriaconta-3(32),4,6,9(31),10,12,14,22,24,29-decaen-8-yl]acetic acid] | 20 nM | 0.645 nM | 
9 | [2H]C([2H])(C(=O)O)[C@H]1c2ccc(C)c(c2)CN2Cc3cc(ccc3OS2(=O)=O)OCCCCn2nnc3c(C)c1ccc32 [Example 55b, [(8S)-4,31-Dimethyl-27,27-dioxo-21,26-dioxa-27λ^6-thia-1,14,15,16-tetraazahexacyclo[20.5.3.1^3,70.1^9,130.0^12,160.0^25,29]dotriaconta-3(32),4,6,9(31),10,12,14,22,24,29-decaen-8-yl](^2H2)acetic acid] |  | 2.5 nM | 15.8 nM
10 | Cc1ccc2cc1CN1Cc3cc(ccc3OS1(=O)=O)OCCCCCn1nnc3c(C)c(ccc31)C2CC(=O)O (single isomer, unassigned) [Example 1b, [4,32-dimethyl-28,28-dioxo-22,27-dioxa-28λ^6-thia-1,14,15,16-tetraazahexacyclo[21.5.3.1^3,70.1^9,130.0^12,160.0^26,30]tritriaconta-3(33),4,6,9(32),10,12,14,23,25,30-decaen-8-yl]acetic acid] | 735 nM | 3.97 nM | 
11 | Cc1ccc2cc1CN1Cc3cc(c(Cl)cc3OS1(=O)=O)OCCCCn1nnc3c(C)c(ccc31)C2CC(=O)O (single isomer, unassigned) [Example 22a, [23-Chloro-4,31-dimethyl-27,27-dioxo-21,26-dioxa-27λ^6-thia-1,14,15,16-tetraazahexacyclo[20.5.3.1^3,70.1^9,130.0^12,160.0^25,29]dotriaconta-3(32),4,6,9(31),10,12,14,22,24,29-decaen-8-yl]acetic acid] | 17.2 nM | 0.631 nM | 
12 | Cc1cc2cc(c1Cl)CN1Cc3cc(ccc3OS1(=O)=O)OCCCCn1nnc3c(C)c(ccc31)C2CC(=O)O (single isomer, unassigned) [Example 36b, [4-Chloro-5,31-dimethyl-27,27-dioxo-21,26-dioxa-27λ^6-thia-1,14,15,16-tetraazahexacyclo[20.5.3.1^3,70.1^9,130.0^12,160.0^25,29]dotriaconta-3(32),4,6,9(31),10,12,14,22,24,29-decaen-8-yl]acetic acid] | 1260 nM | 32.5 nM | 
13 | Cc1ccc2cc1CN1Cc3cc(cc(F)c3OS1(=O)=O)OCCCCn1nnc3c(C)c(ccc31)C2CC(=O)O (single isomer, unassigned) [Example 17a, [24-Fluoro-4,31-dimethyl-27,27-dioxo-21,26-dioxa-27λ^6-thia-1,14,15,16-tetraazahexacyclo[20.5.3.1^3,70.1^9,130.0^12,160.0^25,29]dotriaconta-3(32),4,6,9(31),10,12,14,22,24,29-decaen-8-yl]acetic acid] | 1660 nM | 25.7 nM | 
